Laboratory results published in PMC4336331, “Novel Receptor-Derived Cyclopeptides to Treat Heart Failure Caused by Anti-β1-Adrenoceptor Antibodies in a Human-Analogous Rat Model” (PLoS ONE, 2015).
Where two headings read alike, the source gives them in different places.

Key:
[1] = system: anti-β1EC2-induced heart failure (β1EC2/GST-FP-immunised rats); details: therapy-study, end of study, mean ±SEM
Method: (§1) In brief, n = 76 two months old Lewis/CrlBR rats were either s.c. immunised with 50 μg β1EC2/GST-FP, or n = 38 rats were control-injected with 0.9% NaCl (t = 0). To maintain high anti-β1EC2-titers, all immunised rats were boosted with β1EC2/GST-FP (or 0.9% NaCl) every month over 20 months as previously described. Application of the different linear or cyclic β1-AR peptides (corresponding to the primary AA-sequence of either the first (β1EC1) or the 2nd extra-cellular β1-AR loop (β1EC2)) or the β1-receptor blocker bisoprolol was initiated either 6 weeks after the 1st immunisation (i.e. 15 days after the 1st boost, prevention-study), or 8.5 months after the 1st immunisation (therapy-study).
From paraffin-embedded heart preparations cavity- and wall-dimensions were determined by computer-aided analysis of H&E-stained mid-ventricular 2μm-sections as previously described. H&E-stained paraffin-sections also served to quantify damaged and fibrotic cardiac areas (scars). For detection of mast cells, deparaffinised cardiac sections were stained with acidified (pH<2.5) toluidine blue 0.1% (Sigma). The number of toluidine-positive cells was normalized to square millimeter of cardiac tissue. TUNEL-positive cells were quantified in 2μm mid-ventricular paraffin-sections using a TMR Red in Situ Death Detection Kit (Roche, Basel, Switzerland). Only the total number of TUNEL-postive cells/section was determined without further differentiation of the specific apoptotic cell type (e.g., fibroblasts, endothelial cells, cardiomyocytes).

anti-β1EC2-antibodies = assay: Free anti-β1EC2-titers by ELISA, therapy-study; format: in vivo, Lewis/CrlBR rats; details: peptides 1.0 mg/kg/month i.v., bisoprolol 15 mg/kg/day orally (S1 Fig., Fig. 2F)
Method: as §1
(TIF) Click here for additional data file.

[2] = system: anti-β1EC2-induced heart failure (β1EC2/GST-FP-immunised rats); assay: Relative organ wet weights and body weight, prevention-study; details: month 16, mean ±SEM
Method: as §1
(§2) After the hearts all other relevant inner organs (e.g., lung, liver, spleen, kidneys, brain, and eyes) were removed, rinsed with ice-cold PBS, weighed, sectioned, and fixed for further histologic analysis.

[3] = system: anti-β1EC2-induced heart failure (β1EC2/GST-FP-immunised rats); assay: Echocardiography and catheterisation, cardiomyopathic phenotype, therapy-study; format: in vivo, Lewis/CrlBR rats; details: echocardiography and catheterisation (Fig. 2G, H; S2 Fig.)
Method: as §1
In brief, the rats were lightly anaestetised (30 mg/kg ketamine-HCl and 5 mg/kg xylazine i.p.), shaved (chest), and placed supine on a special table. M-mode tracings were recorded at baseline (before immunisation), and subsequently every four months in the parasternal long and short axis views according to the guidelines of the American Society for Echocardiography. Pulsed-wave Doppler spectra were recorded from the apical five-chamber view and the velocity-time integral (VTI) of the transaortic flow served to calculate cardiac output (CO [ml/min] = Aortic VTI x (π [LV-outflow tract diameter/2]^2) x bpm).

[4] = system: anti-β1EC2-induced heart failure (β1EC2/GST-FP-immunised rats); assay: Left heart catheterisation (haemodynamics), therapy-study; format: in vivo, Lewis/CrlBR rats; details: LV catheterisation month 20, mean ±SEM
Method: as §1

[5] = system: anti-β1EC2-induced heart failure (β1EC2/GST-FP-immunised rats); assay: Relative organ wet weights and body weight, therapy-study; details: immunised anti-β1EC2-positive rats, from 8.5 months after 1st immunisation peptides 1.0 mg/kg i.v. every 4 weeks, bisoprolol 15 mg/kg/day orally, over 12 months, month 20, mean ±SEM
Method: as §1, §2

[6] = immunised anti-β1EC2-positive rats, from 8.5 months after 1st immunisation peptides 1.0 mg/kg i.v. every 4 weeks, bisoprolol 15 mg/kg/day orally, over 12 months
[7] = non-immunised 0.9% NaCl-injected rats, EC2-CP 1.0 mg/kg i.v. every 4 weeks or bisoprolol 15 mg/kg/day orally over 12 months
[8] = immunised anti-β1EC2-positive rats, from 6 weeks after 1st immunisation EC2-CP 1.0 mg/kg i.v. every 4 weeks or bisoprolol 15 mg/kg/day orally over 12 months

## CC(C)NCC(O)COc1ccc(COCCOC(C)C)cc1 (stereo not shown) [bisoprolol, reference compound]
[1]; [6]
  IVS (thickness of the inter-ventricular septum): 1.7 ±0.1 mm
  LVA (total LV-area): 61.9 ±5.2 mm2
  LVCA (LV-cavity area): 26.8 ±1.0 mm2
  LVWA (LV wall area): 35.0 ±4.5 mm2
  PW (posterior wall thickness): 1.5 ±0.1 mm
[1]; [7]
  IVS (thickness of the inter-ventricular septum): 1.8 ±0.1 mm
  LVA (total LV-area): 58.4 ±0.7 mm2
  LVCA (LV-cavity area): 22.6 ±0.2 mm2
  LVCA / LVA %: 38.7 ±0.5%
  LVWA (LV wall area): 35.8 ±0.5 mm2
  PW (posterior wall thickness): 1.8 ±0.1 mm
anti-β1EC2-antibodies
  effect on anti-β1EC2-titers, in words: no effect
[2]; [8]
  Heart, relative (wet) weight: 2.55 ± 0.06 mg/g
  Kidney L, relative (wet) weight: 2.63 ± 0.04 mg/g
  Kidney R, relative (wet) weight: 2.73 ± 0.07 mg/g
  Liver, relative (wet) weight: 22.63 ± 0.46 mg/g
  Lung, relative (wet) weight: 2.74 ± 0.07 mg/g
  Spleen, relative (wet) weight: 1.74 ± 0.05 mg/g
  Weight (body weight): 533 ± 27 g
[2]; [7]
  Heart, relative (wet) weight: 2.50 ± 0.06 mg/g
  Kidney L, relative (wet) weight: 2.79 ± 0.05 mg/g
  Kidney R, relative (wet) weight: 2.90 ± 0.07 mg/g
  Liver, relative (wet) weight: 22.33 ± 0.78 mg/g
  Lung, relative (wet) weight: 2.66 ± 0.22 mg/g
  Spleen, relative (wet) weight: 1.79 ± 0.05 mg/g
  Weight (body weight): 546 ± 8 g
[3]
  cardiomyopathic phenotype, in words: only stopped further disease-progression
[4]; [6]
  +dP/dt (contractilility): 5697 ± 231 mmHg/s
  -dP/dt (relaxation): 4238 ± 117 mmHg/s
  HF (heart frequence): 173 ± 3 bpm
  LVEDP (LV end-diastolic pressure): 10.9 ± 1.3 mmHg
  LVSP (maximal systolic LV-pressure): 108 ± 2 mmHg
[4]; [7]
  +dP/dt (contractilility): 6018 ±308 mmHg/s
  -dP/dt (relaxation): 4646 ± 295 mmHg/s
  HF (heart frequence): 168 ± 6 bpm
  LVEDP (LV end-diastolic pressure): 9.7 ± 0.9 mmHg
  LVSP (maximal systolic LV-pressure): 104 ± 4 mmHg
[5]
  Heart, relative (wet) weight: 2.93 ± 0.11 mg/g
  Liver, relative (wet) weight: 21.61 ± 1.47 mg/g
  Lung, relative (wet) weight: 2.88 ± 0.10 mg/g
